Source: ChEMBL document CHEMBL5512640, “Discovery of novel itaconimide-based derivatives as potent HDAC inhibitors for the efficient treatment of prostate cancer” (Eur J Med Chem, 2024)
Calls of active or inactive are those of the source. No cut-off for these calls is given here.

Experiments:
Histone deacetylase 1 = Histone deacetylase 1 (Homo sapiens, UniProt Q13547); assay: Inhibition of human HDAC1 incubated for 10 mins followed by fluorogenic substrate addition by fluorescence based analysis
Chain of Histone deacetylase 1 (Q13547 whole entry): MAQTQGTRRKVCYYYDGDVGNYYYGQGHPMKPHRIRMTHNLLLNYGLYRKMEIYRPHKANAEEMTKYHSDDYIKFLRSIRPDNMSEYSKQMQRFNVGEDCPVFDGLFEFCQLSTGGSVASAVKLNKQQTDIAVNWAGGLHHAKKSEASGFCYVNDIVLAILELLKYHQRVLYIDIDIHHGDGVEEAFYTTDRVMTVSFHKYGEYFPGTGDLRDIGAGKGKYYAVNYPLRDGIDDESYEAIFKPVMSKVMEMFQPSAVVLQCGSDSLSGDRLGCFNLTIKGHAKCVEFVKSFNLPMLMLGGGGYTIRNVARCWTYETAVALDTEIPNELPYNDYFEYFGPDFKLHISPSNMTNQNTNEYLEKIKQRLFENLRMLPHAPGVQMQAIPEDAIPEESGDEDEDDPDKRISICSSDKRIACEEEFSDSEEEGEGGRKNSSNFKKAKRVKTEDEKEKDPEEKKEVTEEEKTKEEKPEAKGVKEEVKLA

DU-145 [1] = assay: Antiproliferative activity against human DU-145 cells incubated for 96 hrs by MTT assay; format: functional, cell-based; conditions: DU-145, 96 h
PC-3 = assay: Antiproliferative activity against human PC-3 cells incubated for 96 hrs by MTT assay; format: functional, cell-based; conditions: PC-3, 96 h
DU-145 [2] = assay: Downregulation of HDAC6 expression in human DU-145 cells at 0.8 uM incubated for 24 hrs by Western blot analysis; format: functional, cell-based
DU-145 [3] = assay: Induction of apoptosis in human DU-145 cells assessed as apoptotic rate at 1.6 uM measured after 72 hrs by annexin V-FITC and PI staining based flow cytometry analysis relative to control; format: functional
[4] = Toxicity in Balb/c mouse assessed as mortality at 8 mg/kg, ip measured upto 40 days; format: organism-based; conditions: in vivo, 960 h, time < 40 day
[5] = Toxicity in Balb/c mouse assessed as effect on body weight at 8 mg/kg, ip measured upto 40 days; format: organism-based; conditions: in vivo, 960 h, time < 40 day
DU-145 [6] = assay: Antitumor activity against human DU-145 cells xenografted in Balb/c nude mouse model assessed as tumor growth inhibition at 8 mg/kg, ip administered once daily for 40 days relative to control; format: functional; conditions: DU-145, 960 h, time 40 day, read-out: TGI
MCF7 = assay: Antiproliferative activity against human MCF7 cells incubated for 96 hrs by MTT assay; format: functional, cell-based; conditions: MCF7, 96 h
[7] = molecular target: Polyamine deacetylase HDAC10 (Homo sapiens, UniProt Q969S8); assay: Inhibition of human HDAC10 incubated for 10 mins followed by fluorogenic substrate addition by fluorescence based analysis
Chain of Polyamine deacetylase HDAC10 (Q969S8 whole entry): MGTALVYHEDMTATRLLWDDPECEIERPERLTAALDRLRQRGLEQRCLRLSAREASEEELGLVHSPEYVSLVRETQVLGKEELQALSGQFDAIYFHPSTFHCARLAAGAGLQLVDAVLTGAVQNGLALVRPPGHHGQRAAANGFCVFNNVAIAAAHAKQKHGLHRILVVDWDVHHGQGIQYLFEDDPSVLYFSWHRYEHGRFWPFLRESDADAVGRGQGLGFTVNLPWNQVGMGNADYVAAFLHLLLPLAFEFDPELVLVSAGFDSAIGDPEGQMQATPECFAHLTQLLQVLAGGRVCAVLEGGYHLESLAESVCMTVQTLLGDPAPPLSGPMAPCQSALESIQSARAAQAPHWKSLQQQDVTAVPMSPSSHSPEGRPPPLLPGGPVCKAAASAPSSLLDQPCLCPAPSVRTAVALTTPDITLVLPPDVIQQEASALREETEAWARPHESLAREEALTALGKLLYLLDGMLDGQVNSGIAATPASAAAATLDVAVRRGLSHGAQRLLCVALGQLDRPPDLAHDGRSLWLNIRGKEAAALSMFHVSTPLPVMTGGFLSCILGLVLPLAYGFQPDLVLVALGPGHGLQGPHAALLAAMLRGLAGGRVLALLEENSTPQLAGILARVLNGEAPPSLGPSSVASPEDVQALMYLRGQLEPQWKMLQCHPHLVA

NCI-H446 = assay: Antiproliferative activity against human NCI-H446 cells incubated for 96 hrs by MTT assay; format: functional, cell-based; conditions: NCI-H446, 96 h
Histone deacetylase 11 = Histone deacetylase 11 (Homo sapiens, UniProt Q96DB2); assay: Inhibition of human HDAC11 incubated for 10 mins followed by fluorogenic substrate addition by fluorescence based analysis
Chain of Histone deacetylase 11 (Q96DB2 whole entry): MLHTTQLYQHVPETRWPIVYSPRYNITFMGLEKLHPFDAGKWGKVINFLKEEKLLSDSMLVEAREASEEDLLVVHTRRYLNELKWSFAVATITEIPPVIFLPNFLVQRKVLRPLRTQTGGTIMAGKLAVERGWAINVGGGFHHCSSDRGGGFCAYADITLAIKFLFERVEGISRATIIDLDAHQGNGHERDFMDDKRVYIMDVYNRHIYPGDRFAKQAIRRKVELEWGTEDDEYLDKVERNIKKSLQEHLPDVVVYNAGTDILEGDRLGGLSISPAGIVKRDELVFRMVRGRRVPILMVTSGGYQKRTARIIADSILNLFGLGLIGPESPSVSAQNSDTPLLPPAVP

NCI-H1650 = assay: Antiproliferative activity against human NCI-H1650 cells incubated for 96 hrs by MTT assay; format: functional, cell-based; conditions: NCI-H1650, 96 h
HCT-116 = assay: Antiproliferative activity against human HCT-116 cells incubated for 96 hrs by MTT assay; format: functional, cell-based; conditions: HCT-116, 96 h
HT-29 = assay: Antiproliferative activity against human HT-29 cells incubated for 96 hrs by MTT assay; format: functional, cell-based; conditions: HT-29, 96 h
MDA-MB-231 = assay: Antiproliferative activity against human MDA-MB-231 cells incubated for 96 hrs by MTT assay; format: functional, cell-based; conditions: MDA-MB-231, 96 h
A549 = assay: Antiproliferative activity against human A549 cells incubated for 96 hrs by MTT assay; format: functional, cell-based; conditions: A549, 96 h
LNCaP = assay: Antiproliferative activity against human LNCaP cells incubated for 96 hrs by MTT assay; format: functional, cell-based

Row | Structure (SMILES) | IC50 (Histone deacetylase 1) [nM] | IC50 (DU-145 [1]) [nM] | IC50 (PC-3) [nM] | further results
1 | CCOc1ccccc1/C=C1\CC(=O)N(CCCCCCC(=O)NO)C1=O | 16.7 | 340 | 890 | –
2 | O=C(CCCCCCN1C(=O)C/C(=C\c2ccccc2O)C1=O)NO | 19.4 | 1720 | 1930 | –
3 | O=C(CCCCCCN1C(=O)C/C(=C\c2ccc(Cl)cc2)C1=O)NO | 23.4 | 570 | 890 | –
4 | C=C(CC(N)=O)C(N)=O | – | 14800 | 9990 | –
5 | COc1cccc(/C=C2\CC(=O)N(CCCCCCC(=O)NO)C2=O)c1 | 18.5 | 400 | 920 | –
6 | Nc1cc(F)ccc1NC(=O)CCCCCN1C(=O)C/C(=C\c2ccccc2)C1=O | 105 | 11100 | > 20000 | –
7 | CN(C)c1ccc(/C=C2\CC(=O)N(CCCCCCC(=O)NO)C2=O)cc1 | 26.7 | 920 | 1750 | –
8 | COc1ccc(Br)cc1/C=C1\CC(=O)N(CCCCCCC(=O)NO)C1=O | 78.1 | 460 | 1130 | –
9 | O=C(CCCN1C(=O)C/C(=C\c2ccccc2)C1=O)NO | 182 | > 20000 | > 20000 | –
10 | COc1ccc(/C=C2\CC(=O)N(CCCCCCC(=O)NO)C2=O)cc1 | 13 | 500 | 890 | –
11 | O=C(CCCCCCN1C(=O)C/C(=C\c2cccc(Br)c2)C1=O)NO | 19.1 | 650 | 1060 | –
12 | O=C(CCCCCCC(=O)Nc1ccccc1)NO [VORINOSTAT] | – | – | – | Activity (DU-145 [2]): Active; Activity (DU-145 [3]): 73.76%
13 | O=C(CCCCCCCN1C(=O)C/C(=C\c2ccccc2)C1=O)NO | 25.2 | 1560 | 5010 | –
14 | O=C(CCCCCCN1C(=O)C/C(=C\c2cccc(F)c2)C1=O)NO | 75.2 | 660 | 890 | –
15 | CC(C)c1ccc(/C=C2\CC(=O)N(CCCCCCC(=O)NO)C2=O)cc1 | 28.6 | 1350 | 1820 | –
16 | Nc1cc(F)ccc1NC(=O)CCCCN1C(=O)C/C(=C\c2ccccc2)C1=O | 173 | > 20000 | > 20000 | –
17 | O=C(CCCCCCN1C(=O)C/C(=C\c2ccccc2Cl)C1=O)NO | 19.3 | 480 | 1440 | –
18 | COc1ccc(/C=C2\CC(=O)N(CCCCCCC(=O)NO)C2=O)cc1OC | 24.7 | 450 | 880 | –

Row | Structure (SMILES) | IC50 (Histone deacetylase 1) [nM] | IC50 (DU-145 [1]) [nM] | IC50 (PC-3) [nM] | further results
19 | COc1cc(/C=C2\CC(=O)N(CCCCCCC(=O)NO)C2=O)cc(OC)c1OC | 27.5 | 1030 | 1710 | –
20 | N#Cc1ccccc1/C=C1\CC(=O)N(CCCCCCC(=O)NO)C1=O | 40.1 | 740 | 870 | –
21 | Nc1cc(F)ccc1NC(=O)CCCN1C(=O)C/C(=C\c2ccccc2)C1=O | 231 | > 20000 | > 20000 | –
22 | CC(=O)O[C@@]12CO[C@@H]1C[C@H](O)[C@@]1(C)C(=O)[C@H](O)C3=C(C)[C@@H](OC(=O)[C@H](O)[C@@H](NC(=O)OC(C)(C)C)c4ccccc4)C[C@@](O)([C@@H](OC(=O)c4ccccc4)[C@H]21)C3(C)C [DOCETAXEL ANHYDROUS] | – | – | – | Activity [4]: Toxic; Activity [5]: Toxic; inhibition in vivo at 8 mg/kg (DU-145 [6]): 13.3%
23 | Nc1cc(F)ccc1NC(=O)c1ccc(CNC(=O)/C=C/c2cccnc2)cc1 [TUCIDINOSTAT] | – | 1490 | 5770 | IC50 (MCF7): > 20000 nM; IC50 [7]: 456 nM; IC50 (NCI-H446): 240 nM; IC50 (Histone deacetylase 11): > 5000 nM; IC50 (NCI-H1650): > 20000 nM; IC50 (HCT-116): 920 nM; IC50 (HT-29): 4570 nM; IC50 (MDA-MB-231): 1860 nM; IC50 (A549): 9850 nM; IC50 (LNCaP): 2890 nM
24 | O=C(CCCCCCN1C(=O)C/C(=C\c2ccccc2)C1=O)NO | 12.9 | 500 | 820 | –
25 | Cc1ccccc1/C=C1\CC(=O)N(CCCCCCC(=O)NO)C1=O | 21.7 | 710 | 930 | –
26 | O=C(CCCCCCN1C(=O)C/C(=C\c2ccc(C(F)(F)F)cc2)C1=O)NO | 33.8 | 1220 | 1830 | –
27 | O=C(CCCCN1C(=O)C/C(=C\c2ccccc2)C1=O)NO | 136 | > 20000 | > 20000 | –
28 | O=C(CCCCCCN1C(=O)C/C(=C\c2cccs2)C1=O)NO | 25.1 | 540 | 910 | –
29 | Nc1cc(F)ccc1NC(=O)CCCCCCN1C(=O)C/C(=C\c2ccccc2)C1=O | 144 | > 20000 | > 20000 | –
30 | O=C(CCCCCCN1C(=O)C/C(=C\c2cccc(Cl)c2)C1=O)NO | 18.8 | 380 | 1700 | –
31 | O=C(NO)c1ccc(CN2C(=O)C/C(=C\c3ccccc3)C2=O)cc1 | 32.9 | 2540 | 7820 | –
32 | O=C(CCCCCCN1C(=O)C/C(=C\c2cccc(I)c2)C1=O)NO | 28.7 | 910 | 1470 | –
33 | O=C(CCCCCN1C(=O)C/C(=C\c2ccccc2)C1=O)NO | 32.2 | 1490 | 4270 | –
34 | O=C(CCCCCCN1C(=O)C/C(=C\c2ccc(Cl)c(Cl)c2)C1=O)NO | 27.9 | 440 | 1690 | –
35 | Cc1ccc(/C=C2\CC(=O)N(CCCCCCC(=O)NO)C2=O)cc1 | 25.5 | 310 | 2200 | –
